# Assay results: US20070293544A1, “Novel 4-Arylamino Pyridone Derivatives as Mek Inhibitors for the Treatment of Hyper-Proliferative Disorders” (priority 2004, published 2007)
# Tests used:
# [1] = test system: human melanoma Mel5 cells; assay: Tumor cell proliferation assay (ATP Lite), Mel5; assay type: cell-based; conditions: 4 days incubation
# Experimental: (§1) Assay 2: Tumor Cell Proliferation Assays (ATP Lite)
# (§2) Murine colon C26, human melanoma A375 and human melanoma Mel5 cells were plated in 96 well Corning white plates (1500 cells/well for C26, and 2000 cells/well for A375, and MiaPaCa-2) and cultured overnight at 37° C. in 5% CO2. Inhibitors were serially diluted in 100% DMSO and subsequently added to cells to reach a final concentration of 0.25% DMSO. The cells were incubated for 4 days in the presence of test compounds in cell growth media (DMEM with 10% fetal bovine serum, 2 mM glutamine for C26, and MiaPaCa-2, and RPMI with 10% fetal bovine serum, 2 mM glutamine for A375). Cell proliferation was quantitated using the ATP lite cell proliferation kit (Packard). Columns 2-4 show the concentration of compounds required to induce 50% cell death (IC50 in μM) of […]. With “+” meaning 100 μM<IC50≦10 μM and “++” IC50≦1 μM and “n.d.” means not determined.
# [2] = biological target: human MEK1 (Homo sapiens, UniProt Q02750); assay: Inhibition of human MEK1 kinase activity, time resolved fluorescence resonance energy transfer assay; assay type: biochemical; conditions: 100 nM MEK1, 15 μM ATP, 300 nM ERK2, two hours
# human MEK1, sequence (Q02750 whole entry): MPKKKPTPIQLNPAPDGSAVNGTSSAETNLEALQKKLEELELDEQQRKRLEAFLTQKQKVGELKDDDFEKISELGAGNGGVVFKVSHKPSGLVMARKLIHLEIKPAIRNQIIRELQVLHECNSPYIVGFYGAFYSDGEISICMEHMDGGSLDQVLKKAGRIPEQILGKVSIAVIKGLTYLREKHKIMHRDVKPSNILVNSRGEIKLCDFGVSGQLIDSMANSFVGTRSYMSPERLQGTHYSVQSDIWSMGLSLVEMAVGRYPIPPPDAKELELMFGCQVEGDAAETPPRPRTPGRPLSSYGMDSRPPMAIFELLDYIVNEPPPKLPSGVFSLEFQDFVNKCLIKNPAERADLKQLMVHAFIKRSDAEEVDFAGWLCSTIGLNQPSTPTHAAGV
# Experimental: The activity of the compounds of the present invitation may be determined by the following procedure: Inhibition of human MEK1 kinase activity was monitored with a homogenous, fluorescence based assay. The assay uses time resolved fluorescence resonance energy transfer to probe for phosphorylation of […] by MEK1. The assay is carried out in low volume 96 well microtiterplates. In a total volume of 15 μl, compounds are incubated with 100 nM MEK1, 15 μM ATP, 300 nM ERK2 employing a buffer containing 20 mM TRIS/HCl, 10 mM MgCl2, 100 μM NaVO4, 1 mM DTT, and 0.005% Tween 20 (pH 7.4). After two hours, 5 nM Europium-anti-PY20 (Perkin Elmer) and 50 nM Anti-GST-Allophycocyanin (CisBio) in buffer containing 50 mM EDTA and 0,05% BSA are added and the reaction incubated for one hour in the dark. Time-resolved fluorescence is measured using a LJL-Analyst (Molecular Devices) with an excitation wavelength of 340 nm and an emission wavelength of 665 nm. The final concentration of DMSO is 2%. To assess the inhibitory potential of the compounds, IC50-values were determined.
# [3] = test system: human melanoma A375 cells; assay: Tumor cell proliferation assay (ATP Lite), A375; assay type: cell-based; conditions: 4 days incubation
# Experimental: as §1, §2
# [4] = test system: Murine colon C26 cells; assay: Tumor cell proliferation assay (ATP Lite), C26; assay type: cell-based; conditions: 4 days incubation
# Experimental: as §1, §2
# [5] = Microsomal stability assay, human liver microsomes; assay type: in vitro ADME; conditions: pooled human liver microsomes, pH 7.4; 3 μM compound, 0.5 mg/ml human liver microsomes, 37° C., 2 mM NADPH; read-out: HLM t½
# Experimental: (§3) Assay 3: Microsomal Stability Assay
# (§4) Compounds were tested on their stability in human, rat and mouse liver microsomal preparations (HLM, RLM and MLM respectively). At a final concentration of 3 μM, compounds were incubated at 37° C. with 0.5 mg/ml human, rat or mouse liver microsomes in a buffer containing 50 mM phosphate, pH 7.4 and 2 mM NADPH. Pooled human liver microsomes or pooled male rat liver microsomes (Sprague Dawley) were obtained from NatuTec (Frankfurt, Germany). Incubations without NADPH served as negative controls. Reactions were stopped after 0, 15, 30, 45 or 60 min by the addition of acetonitrile and microsomes were pelleted by centrifugation (10 min at 6200× g). Supernatants were analyzed by HPLC regarding the concentration of mother compound. Finally, the half-life of compounds in the regarding microsomal preparation was calculated.
# [6] = Microsomal stability assay, rat liver microsomes; assay type: in vitro ADME; conditions: male, Sprague Dawley, pooled rat liver microsomes, pH 7.4; 3 μM compound, 0.5 mg/ml rat liver microsomes, 37° C., 2 mM NADPH; read-out: RLM t½
# Experimental: as §3, §4
# [7] = test system: Tumors; conditions: patients; cited from earlier work
# [8] = in vivo; cited from earlier work
SMILES,Mel5 cells IC50 [1],IC50 [2],A375 cells IC50 [3],C26 cells IC50 [4],half-life at 3 μM [5],half-life at 3 μM [6],efficacy in clinical phase II trials [7],bioavailability [8]
"Cc1cc(Br)ccc1Nc1cc(=O)n(C)cc1C(=O)O [Compound 3a, 4-(4-Bromo-2-methyl-phenylamino)-1-methyl-6-oxo-1,6-dihydro-pyridine-3-carboxylic acid]",+ (100 μM<IC50≦10 μM),≤ 1000 nM,+ (100 μM<IC50≦10 μM),+ (100 μM<IC50≦10 μM),–,–,–,–
"Cc1cc(I)ccc1Nc1cc(=O)n(C)cc1C(=O)O [Compound 3b, 4-(4-Iodo-2-methyl-phenylamino)-1-methyl-6-oxo-1,6-dihydro-pyridine-3-carboxylic acid]",–,≤ 1000 nM,–,–,–,–,–,–
"Cc1cc(Br)ccc1Nc1cc(=O)n(C)cc1C(=O)NO [Compound 4a, 4-(4-Bromo-2-methyl-phenylamino)-1-methyl-6-oxo-1,6-dihydro-pyridine-3-carboxylic acid hydroxyamide]",+ (100 μM<IC50≦10 μM),≤ 1000 nM,+ (100 μM<IC50≦10 μM),+ (100 μM<IC50≦10 μM),–,–,–,–
"Cc1cc(Br)ccc1Nc1cc(=O)n(C)cc1C(=O)NOC[C@@H](O)CO [Compound 4b, 4-[(4-Bromo-2-methylphenyl)amino]-N-{[(2S)-2,3-dihydroxypropyl]oxy}-1-methyl-6-oxo-1,6-dihydropyridine-3-carboxamide]",+ (100 μM<IC50≦10 μM),≤ 1000 nM,+ (100 μM<IC50≦10 μM),+ (100 μM<IC50≦10 μM),> 2 h,> 2 h,–,–
"Cc1cc(I)ccc1Nc1cc(=O)n(C)cc1C(=O)NOC[C@@H](O)CO [Compound 4c, 4-[(4-Iodo-2-methylphenyl)amino]-N-{[(2S)-2,3-dihydroxypropyl]oxy}-1-methyl-6-oxo-1,6-dihydropyridine-3-carboxamide]",–,≤ 1000 nM,+ (100 μM<IC50≦10 μM),+ (100 μM<IC50≦10 μM),> 2 h,> 2 h,–,–
"C=CCNc1nnc(-c2cn(C)c(=O)cc2Nc2ccc(Br)cc2C)o1 [Compound 7a, 5-(5-Allylamino-[1,3,4]oxadiazol-2-yl)-4-(4-bromo-2-methyl-phenylamino)-1-methyl-1H-pyridin-2-one]",–,≤ 1000 nM,–,–,0.517 to 2 h,0.517 to 2 h,–,–
O=C(NOCC1CC1)c1ccc(F)c(F)c1Nc1ccc(I)cc1Cl [PD-184352],–,–,–,–,–,–,lacking efficacy,low
